According to patent publication US20250368666A1, “INDAZOLE COMPOUNDS” (TYRA BIOSCIENCES, INC., priority 2022, published 2025):
pIC50: −log10 of the molar value. Where two headings read alike, the source gives them in different places.

Tests used:
[1] = target: T1, FGFR1 (Homo sapiens, UniProt P11362); experiment: Kinase binding assay (kinase-tagged T7 phage, affinity beads, qPCR), Kd; details: read-out: FGFR1 (Kd nM)
T1 construct: made in house; host or cells: E. coli (BL21-derived), T7 phage
Method in brief: (§1)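 First, phage lysates carrying tagged kinase are made in E. coli at 32° C. Next, they are combined with blocked biotin-ligand streptavidin beads and compound at 0.9% final DMSO. Finally, eluted kinase is measured by qPCR and Kd is fitted with the Hill equation.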

[2] = target: T2, FGFR3 (Homo sapiens, UniProt P22607); experiment: as above; details: read-out: FGFR3 (Kd nM)
T2 construct: made in house; host or cells: E. coli (BL21-derived), T7 phage
T2 sequence (P22607 23-806): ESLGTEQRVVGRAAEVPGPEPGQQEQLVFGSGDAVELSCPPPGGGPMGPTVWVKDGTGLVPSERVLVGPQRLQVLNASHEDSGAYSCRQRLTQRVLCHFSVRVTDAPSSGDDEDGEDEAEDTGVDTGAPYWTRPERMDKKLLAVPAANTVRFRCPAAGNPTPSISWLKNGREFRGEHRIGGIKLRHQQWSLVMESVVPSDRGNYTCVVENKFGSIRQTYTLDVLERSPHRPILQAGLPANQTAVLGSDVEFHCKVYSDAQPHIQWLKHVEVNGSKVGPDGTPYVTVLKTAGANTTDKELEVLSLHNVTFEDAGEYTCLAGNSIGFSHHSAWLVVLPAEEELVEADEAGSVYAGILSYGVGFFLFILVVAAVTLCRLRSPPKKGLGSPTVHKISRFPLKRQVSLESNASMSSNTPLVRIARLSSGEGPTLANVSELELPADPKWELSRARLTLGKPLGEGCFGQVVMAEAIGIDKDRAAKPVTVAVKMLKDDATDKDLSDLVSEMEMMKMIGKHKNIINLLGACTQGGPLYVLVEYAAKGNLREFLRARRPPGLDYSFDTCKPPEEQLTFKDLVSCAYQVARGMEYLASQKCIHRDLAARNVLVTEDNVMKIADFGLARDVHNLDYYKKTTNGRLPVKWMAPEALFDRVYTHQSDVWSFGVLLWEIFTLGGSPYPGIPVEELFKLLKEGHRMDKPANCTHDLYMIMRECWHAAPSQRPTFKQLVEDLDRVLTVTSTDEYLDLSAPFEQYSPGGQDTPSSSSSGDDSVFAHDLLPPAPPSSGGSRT
Method in brief: as §1

[3] = tested on: KATO-III cell line (FGFR2 amplification); experiment: Cancer cell line cell viability assay (Cell Titer-Glo), 72 hr; assay type: cell-based; details: Homo sapiens, KATO III
Description: (§2) Experimental Purpose: To detect the change of intracellular ATP by Cell Titer-Glo® and to evaluate the inhibitory effect of the compounds on cancer cell lines by determining the in vitro IC50 value of the compounds.
(§3) Cell Titer-Glo® 2.0 Luminescent cell viability assay reagent was purchased from Promega (Madison, WI). KG-1, KATO-III, and MDA-MB-453 cell lines were purchased from American Type Culture Collection (Manassas, VA). RT112/84 cell line was purchased from Millipore-Sigma (St. Louis, MO). HuH7 cells were purchased from Seikisui Xenotech (Kansas City, KS). RT112/84 and MDA-MB-453 cells were cultured in RPMI1640 media supplemented with 10% fetal bovine serum. KG-1 and KATO-III cell lines were cultured in IMDM media supplemented with 20% FBS. HuH7 cells were cultured in IMDM media supplemented with 10% FBS. Cultures were maintained at 37° C. in a humidified atmosphere of 5% CO2 and 95% air.
(§4) Cell Viability Assay Procedure: Cells were plated in 96-well clear bottom/white plates (Corning #3903) at a range of densities depending on the optimal assay window (5,000-20,000 cells/well in […] of media), incubated overnight. The next day, test compound DMSO stock solutions were made at 10 mM and […] final concentration. Compounds were then added to cells in a 9-dose, 4-fold dilution series starting at 3 μM with an HP 300e Digital Dispenser (each dose was applied in triplicate). DMSO was backfilled to each well up to 301 nL total volume of test compound+DMSO, and a total of 301 nL DMSO was added to a control/no test compound well in triplicate. The cells in cell culture plates were incubated with the compounds at 37° C. and 5% CO2 for 72 hours-120 hours depending on the cell line. Then 50 μl of Cell Titer Glo 2.0 reagent was added to each well of the cell culture plates. The contents were covered from light and mixed on an orbital shaker at room temperature for minimum of 10 min. Luminescence was recorded by a Clariostar Plus Microplate Reader (BMG Labtech, Cary, NC). Cells were assessed as a percentage of DMSO only treated control cells. Curves were plotted and IC50 values were calculated using the GraphPad Prism 9 program based on a sigmoidal dose-response equation (log (inhibitor) vs. response—Variable slope, 4-parameter).

[4] = tested on: KG-1 cell line (FGFR 1-fusion); experiment: as above; assay type: cell-based; details: Homo sapiens, KG-1, KG-1 cell line (FGFR1-fusion)
Description: as §2, §3, §4

[5] = tested on: RT112/84 cell line (FGFR3-fusion); experiment: as above; assay type: cell-based; details: Homo sapiens, RT112/84, RT112/84 cell line (FGFR3-fusion)
Description: as §2, §3, §4

[6] = kinase binding assay, 11-point 3-fold dilution series

T1 sequence (P11362 22-822): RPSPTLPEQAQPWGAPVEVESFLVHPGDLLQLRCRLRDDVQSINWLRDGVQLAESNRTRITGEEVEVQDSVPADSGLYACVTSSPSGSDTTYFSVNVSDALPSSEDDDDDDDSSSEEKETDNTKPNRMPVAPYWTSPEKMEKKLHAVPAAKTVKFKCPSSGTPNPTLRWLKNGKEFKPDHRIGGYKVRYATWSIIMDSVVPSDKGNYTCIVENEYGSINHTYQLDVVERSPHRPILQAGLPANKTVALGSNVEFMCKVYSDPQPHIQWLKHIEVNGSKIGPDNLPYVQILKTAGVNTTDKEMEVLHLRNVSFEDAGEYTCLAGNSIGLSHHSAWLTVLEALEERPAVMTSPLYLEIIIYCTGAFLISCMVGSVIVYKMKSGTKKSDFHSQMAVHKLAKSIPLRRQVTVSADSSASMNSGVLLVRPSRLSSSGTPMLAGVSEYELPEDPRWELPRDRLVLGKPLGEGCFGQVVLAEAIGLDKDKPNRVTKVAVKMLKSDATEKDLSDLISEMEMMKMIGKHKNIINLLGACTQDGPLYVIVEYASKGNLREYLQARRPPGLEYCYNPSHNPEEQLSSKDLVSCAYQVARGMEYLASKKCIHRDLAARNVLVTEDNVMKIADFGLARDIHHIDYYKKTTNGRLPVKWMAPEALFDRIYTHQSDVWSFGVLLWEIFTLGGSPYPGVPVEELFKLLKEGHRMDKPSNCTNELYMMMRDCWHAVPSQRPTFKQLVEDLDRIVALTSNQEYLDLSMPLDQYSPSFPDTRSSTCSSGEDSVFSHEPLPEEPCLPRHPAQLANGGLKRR

Row | Compound | Kd [1] [nM] | Kd [2] [nM] | pIC50 [3] | pIC50 [4] | pIC50 [5] | Kd [1, 6] [nM] | Kd [2, 6] [nM]
1 | C[C@@H](Oc1ccc2[nH]nc(-c3ccc(N4CC(N)(Cc5ccn(C)n5)C4)nn3)c2c1)c1c(Cl)cncc1Cl [Example 306, (R)-1-(6-(5-(1-(3,5-dichloropyridin-4-yl)ethoxy)-1H-indazol-3-yl)pyridazin-3-yl)-3-((1-methyl-1H-pyrazol-3-yl)methyl)azetidin-3-amine] | 1 to 50 | 1 to 50 | 6.70 to 7.30 | 6.00 to 6.70 | 7.30 to 10.00 |  | 
2 | CC(C)OC(=O)C1(N)CN(c2ccc(-c3n[nH]c4ccc(O[C@H](C)c5c(Cl)cncc5Cl)cc34)nn2)C1 [Example 308, (R)-isopropyl 3-amino-1-(6-(5-(1-(3,5-dichloropyridin-4-yl)ethoxy)-1H-indazol-3-yl)pyridazin-3-yl)azetidine-3-carboxylate] | 1 to 50 | 1 to 50 | 6.70 to 7.30 | 6.00 to 6.70 | 7.30 to 10.00 |  | 
3 | C[C@@H](Oc1ccc2[nH]nc(-c3ccc(N4CC(C)(NCC(=O)N(C)C)C4)nn3)c2c1)c1c(Cl)cncc1Cl [Example 314, (R)-2-((1-(6-(5-(1-(3,5-dichloropyridin-4-yl)ethoxy)-1H-indazol-3-yl)pyridazin-3-yl)-3-methylazetidin-3-yl)amino)-N,N-dimethylacetamide] | 1 to 50 | 1 to 50 | 6.70 to 7.30 | 6.00 to 6.70 | 7.30 to 10.00 |  | 
4 | CCOCC1(N)CN(c2ccc(-c3n[nH]c4ccc(O[C@H](C)c5c(Cl)cncc5Cl)cc34)nn2)C1 [Example 316, (R)-1-(6-(5-(1-(3,5-dichloropyridin-4-yl)ethoxy)-1H-indazol-3-yl)pyridazin-3-yl)-3-(ethoxymethyl)azeti-din-3-amine] | 1 to 50 | 1 to 50 | 6.70 to 7.30 | 6.70 to 7.30 | 7.30 to 10.00 |  | 
5 | COCC1(N)CN(c2ccc(-c3n[nH]c4ccc(O[C@H](C)c5c(Cl)cncc5Cl)cc34)nn2)C1 [Example 376, (R)-1-(6-(5-(1-(3,5-dichloropyridin-4-yl)ethoxy)-1H-indazol-3-yl)pyridazin-3-yl)-3-(methoxy-methyl)aze-tidin-3-amine] | 1 to 50 | 1 to 50 | 6.70 to 7.30 | 6.00 to 6.70 | 7.30 to 10.00 |  | 
6 | CC(C)OCC1(N)CN(c2ccc(-c3n[nH]c4ccc(O[C@H](C)c5c(Cl)cncc5Cl)cc34)nn2)C1 [Example 377, (R)-1-(6-(5-(1-(3,5-dichloropyridin-4-yl)ethoxy)-1H-indazol-3-yl)pyridazin-3-yl)-3-(isopropoxy-methyl)a-zetidin-3-amine] | 1 to 50 | 1 to 50 | 6.70 to 7.30 | 6.00 to 6.70 | 7.30 to 10.00 |  | 
7 | CC(C)=CCC1(N)CN(c2ccc(-c3n[nH]c4ccc(O[C@H](C)c5c(Cl)cncc5Cl)cc34)nn2)C1 [Example 378, (R)-1-(6-(5-(1-(3,5-dichloropyridin-4-yl)ethoxy)-1H-indazol-3-yl)pyridazin-3-yl)-3-(3-methylbut-2-en-1-yl)azetidin-3-amine] | 1 to 50 | 1 to 50 | 6.70 to 7.30 | < 6.00 | 7.30 to 10.00 |  | 
8 | C[C@H](O)CC1(N)CN(c2ncc(-c3n[nH]c4ccc(O[C@H](C)c5c(Cl)cncc5Cl)cc34)cc2F)C1 [Example 384, (S)-1-(3-amino-1-(5-(5-((R)-1-(3,5-dichloropyridin-4-yl)ethoxy)-1H-indazol-3-yl)-3-fluoropyridin-2-yl)azetidin-3-yl)propan-2-ol] |  |  | 6.70 to 7.30 | 6.70 to 7.30 | 7.30 to 10.00 | 1 to 50 | 1 to 50
9 | C[C@@H](Oc1ccc2[nH]nc(-c3ccc(N4CC(N)(CS(C)(=O)=O)C4)nn3)c2c1)c1c(Cl)cncc1Cl [Example 387, (R)-1-(6-(5-(1-(3,5-dichloropyridin-4-yl)ethoxy)-1H-indazol-3-yl)pyridazin-3-yl)-3-((methylsulfonyl)meth-yl)azetidin-3-amine] |  |  | 6.70 to 7.30 | 6.00 to 6.70 | 7.30 to 10.00 | 1 to 50 | 1 to 50

Other lines, results leading:

Row | Kd [1] [nM] | Kd [2] [nM] | pIC50 [3] | pIC50 [4] | pIC50 [5] | Kd [1, 6] [nM] | Kd [2, 6] [nM] | Compound
10 | 1 to 50 | 1 to 50 | 7.30 to 10.00 | 6.70 to 7.30 | 7.30 to 10.00 |  |  | C[C@@H](Oc1ccc2[nH]nc(-c3cnc(N4CC(N)(CCC#N)C4)c(F)c3)c2c1)c1c(Cl)cncc1Cl [Example 298, (R)-3-(3-amino-1-(5-(5-(1-(3,5-dichloropyridin-4-yl)ethoxy)-1H-indazol-3-yl)-3-fluoropyridin-2-yl)azetidin-3-yl)propanenitrile]
11 | 1 to 50 | 1 to 50 | 6.70 to 7.30 | 6.70 to 7.30 | 7.30 to 10.00 |  |  | CCC1(N)CN(c2ccc(-c3n[nH]c4ccc(O[C@H](C)c5c(Cl)cncc5Cl)cc34)nn2)C1 [Example 299, (R)-1-(6-(5-(1-(3,5-Dichloropyridin-4-yl)ethoxy)-1H-indazol-3-yl)pyridazin-3-yl)-3-ethylazetidin-3-amine]
12 | 1 to 50 | 1 to 50 | 6.70 to 7.30 | < 6.00 | 7.30 to 10.00 |  |  | CNC(=O)C1(N)CN(c2ccc(-c3n[nH]c4ccc(O[C@H](C)c5c(Cl)cncc5Cl)cc34)nn2)C1 [Example 300, (R)-3-amino-1-(6-(5-(1-(3,5-dichloropyridin-4-yl)ethoxy)-1H-indazol-3-yl)pyridazin-3-yl)-N-methylazetidine-3-carboxamide]
13 | 1 to 50 | 1 to 50 | 7.30 to 10.00 | 6.70 to 7.30 | 7.30 to 10.00 |  |  | C[C@@H](Oc1ccc2[nH]nc(-c3ccc(N4CC(N)(C(=O)N(C)C)C4)nn3)c2c1)c1c(Cl)cncc1Cl [Example 301, (R)-3-Amino-1-(6-(5-(1-(3,5-dichloropyridin-4-yl)ethoxy)-1H-indazol-3-yl)pyridazin-3-yl)-N,N-dimethylazetidine-3-carboxamide]
14 | 1 to 50 | 1 to 50 | 7.30 to 10.00 | 6.70 to 7.30 | 7.30 to 10.00 |  |  | C[C@@H](Oc1ccc2[nH]nc(-c3cnc(N4CC(C)(NCCF)C4)c(F)c3)c2c1)c1c(Cl)cncc1Cl [Example 303, (R)-1-(5-(5-(1-(3,5-dichloropyridin-4-yl)ethoxy)-1H-indazol-3-y1)-3-fluoropyridin-2-yl)-N-(2-fluoroethyl)-3-methylazetidin-3-amine]
15 | 1 to 50 | 1 to 50 | 7.30 to 10.00 | 6.70 to 7.30 | 7.30 to 10.00 |  |  | COc1cc2[nH]nc(-c3cnc(N4CC(C)(N)C4)c(F)c3)c2cc1O[C@H](C)c1c(Cl)cncc1Cl [Example 304, (R)-1-(5-(5-(1-(3,5-dichloropyridin-4-yl)ethoxy)-6-methoxy-1H-indazol-3-yl)-3-fluoropyridin-2-yl)-3-methylazetidin-3-amine]
16 |  |  | 7.30 to 10.00 | 6.70 to 7.30 | 7.30 to 10.00 | 1 to 50 | 1 to 50 | C[C@@H](Oc1ccc2[nH]nc(-c3ccc(N4CCC(N)(CS(C)(=O)=O)CC4)nn3)c2c1)c1c(Cl)cncc1Cl [Example 386, (R)-1-(6-(5-(1-(3,5-dichloropyridin-4-yl)ethoxy)-1H-indazol-3-yl)pyridazin-3-yl)-4-((methylsulfonyl)methyl)piperidin-4-amine]
